Experiments:
[1] = Example 1: safety (adverse events, physical examinations, clinical laboratory tests, ECG); format: in vivo, human; details: mifepristone 300 mg single dose with ketoconazole for 14 days
Method: Subjects in both cohorts returned to the study center on Day 15 for safety monitoring, and completion of the Termination Visit procedures, followed by discharge from the study. Safety was assessed by spontaneously reported adverse events, physical examinations, and routine clinical laboratory tests. To the extent possible, any adverse events deemed study drug-related and that were ongoing at the time of discharge from the study were followed-up to resolution or until a determination is made that the unresolved event was stable.

[2] = Example 2: effect of a 400 mg single dose of ketoconazole on PK of an 8-day regimen of 300 mg or 600 mg OD mifepristone after moderate fat breakfast; format: in vivo, human; details: for increase in AUC0-24, Day 8 relative to Day 7 / increase in Cmax, Day 8 relative to Day 7: 400 mg ketoconazole on Day 8
Method: This was an open-label study in healthy male subjects. […] The 400 mg single dose of ketoconazole was given to all subjects on day 8.
METHODOLOGY: Twelve subjects were enrolled, six in Cohort 1 and 6 in Cohort 2.
Subjects were discharged on Day 11.
Subjects were discharged on Day 11. Subjects in both cohorts returned to study center on Day 13 for safety monitoring, collection of the 120-hour PK draw, and completion of the Termination Visit procedures, followed by discharge from the study. To the extent possible, any adverse events deemed study drug-related and that were ongoing at the time of discharge from the study were followed-up to resolution or until a determination was made that the unresolved event was stable.
DIAGNOSIS AND MAIN […] FOR INCLUSION: Healthy male volunteers between the ages of 18 to 45 years of age with a body mass index (BMI) ranging between 19 and 32 kg/m2 and a weight of at least 60 kg (132 lbs) were enrolled. Subjects had no clinically significant abnormal findings on the physical examination, ECG, blood pressure, heart rate, medical history, or clinical laboratory results during screening. The QTc interval at screening was less than 450 msec.
DURATION OF TREATMENT: Up to a total of 28 days, including up to 2 weeks screening, dosing on Days 1-8, safety observation, and PK sample collection through Day 13.
Additionally, comparisons were made between the PK results of cohort 1 and 2. Pharmacokinetic parameters Cmax, T½ and total AUC were calculated for plasma concentrations of ketoconazole following the single dose on Day 8. Descriptive statistics (count, mean, median, standard deviation, minimum, maximum, and % coefficient of variation) were provided. Ketoconazole concentrations were listed and summarized. GM means of Cmax and total AUC were compared for the single dose in this study to the combined data of reported 400 mg single doses of ketoconazole of healthy subjects from the literature.

[3] = Example 2: safety (adverse events, physical examinations, laboratory tests); format: in vivo, human
Method: Safety was assessed by spontaneously reported adverse events, physical examinations, and routine clinical laboratory tests. Adverse event data were tabulated. Physical findings and laboratory test results were listed by subject.

[4] = Example 3: effect of ketoconazole 200 mg twice daily on PK of mifepristone 600 mg once daily and metabolites, with food; format: in vivo, human
Method: (§1) A single dose of ketoconazole was administered on Day −1.
The study was a two period study design.
Concentrations of RU 42633 and RU 42848 were similar on Day 17 and Day 12.

[5] = Example 3: cross-study comparison of exposure with historic study of 1200 mg mifepristone OD; format: in vivo, human
[6] = Example 3: safety (adverse events, laboratory tests, vital signs, ECGs); format: in vivo, human
Method: as §1

clinical = details: male, human, in vivo
Method: This study was conducted in accordance with Good Clinical Practice under the guidance of an Institutional Review Board and in accordance with applicable local legal and regulatory requirements.
KORLYM® was supplied in 300 mg tablets for oral administration. Three or four tablets were administered once daily (OD) to provide either the 900 mg or 1200 mg per day dose.
Itraconazole was supplied • in 100 mg capsules for oral administration. Two capsules were administered once daily (OD) to provide the 200 mg per day dose.
All drug administrations were oral and were given after the morning meal.
The inclusion criteria required, among other criteria, that the subjects be healthy male subjects between the ages of 18 and 65, weigh more than 110 pounds, and have a body mass index (BMI) of 18 to 32 kg/m^2. The design included a Screening Period of up to 3 weeks (subjects were screened at a time between days −21 to −1 prior to the first treatment period), three 14-day treatment periods, and a Follow-Up (FU) Period of 14 days for safety observation.
Subjects meeting the inclusion criteria (n=22) were administered drug daily and blood samples were taken on the days indicated below during Periods 1-3 and on day 43 of the follow-up period.
Subjects presented at the Clinical Research Unit (CRU) after an 8-hour overnight fast, then predose PK samples were taken and other evaluations (predose electrocardiograms (ECGs), plasma cortisol and ACTH, serum chemistry tests) were performed. […] On the specific days indicated above, additional blood draws for determining 24-hour PK profiles were performed.
Pharmacokinetic (PK) parameters measured and computed included AUC (area under the concentration−time curve), AUC0-24 (AUC values from time 0 to 24 hours postdose), Cmax (maximum concentration), and Css (average steady-state concentration, calculated as AUC0-24/24).

[7] = Examples 5-8: liver function of patient with excess cortisol on ketoconazole and reduced mifepristone dose; format: in vivo, human
[8] = MIFE 300 mg/d with vs without 400 mg Keto
[9] = MIFE 600 mg/d with vs without 400 mg Keto
[10] = MIFE 600 vs 300 mg/d, no ketoconazole
[11] = MIFE 600 vs 300 mg/d, with 400 mg Keto
[12] = Test: Day 17, 600 mg mifepristone OD + 200 mg Ketoconazole BID, Reference: Day 12, 600 mg mifepristone OD, geometric mean ratio
[13] = Test: Day 17, 600 mg mifepristone OD + 200 mg Ketoconazole BID, Reference: historic study Day 7, 1200 mg mifepristone OD alone, after 34% fat meal
[14] = mifepristone 600 mg OD Days 1-17, ketoconazole 200 mg BID Days 13-17

In the case of `CC#C[C@]1(O)CC[C@H]2[C@@H]3CCC4=CC(=O)CCC4=C3[C@@H](c3ccc(N(C)C)cc3)C[C@@]21C` [Mifepristone, 11β-(4-dimethylaminophenyl)-17β-hydroxy-17α-(1-propynyl)-estra-4,9-dien-3-one], the “subjects experiencing at least one treatment emergent adverse event (TEAE)” value ([1]; 12 subjects) is reported as 25%, the “SAE or AE resulting in discontinuation” value [1] is reported as “No subject experienced an SAE or an AE that resulted in discontinuation from the study” and the “TEAEs considered by the investigator to be related to the drug” value [1] is reported as “No TEAE was considered by the investigator to be related to Mifepristone”. For the same compound, the “changes in ECG parameters” value [1] was “No clinically significant changes in any ECG parameter”, the “changes in laboratory test results” value [1] was “Minimal changes in laboratory test results” and the “increase in AUC0-24, Day 8 relative to Day 7” value ([2]; Cohort 1, 300 mg OD) was 25%. For the same compound, the “increase in Cmax, Day 8 relative to Day 7” value ([2]; Cohort 1, 300 mg OD) was 20%, the “increase in AUC0-24, Day 8 relative to Day 7” value ([2]; Cohort 2, 600 mg OD) was 28% and the “increase in Cmax, Day 8 relative to Day 7” value ([2]; Cohort 2, 600 mg OD) was 39%. For the same compound, the “AUC0-24 greater at 600 mg OD than at 300 mg OD” value ([2]; Day 8 with 400 mg ketoconazole) was 52%, the “Cmax greater at 600 mg OD than at 300 mg OD” value ([2]; Day 8 with 400 mg ketoconazole) was 65% and the “half-life greater at 600 mg OD than at 300 mg OD” value ([2]; Day 8 with 400 mg ketoconazole) was 13%. The “Mean Ratio AUCτ, C1 Day 8/Day 7” value [2, 8] was 1.25, the “Mean Ratio Cmax, C1 Day 8/Day 7” value [2, 8] was 1.19 and the “Mean Ratio AUCτ, C2 Day 8/Day 7” value [2, 9] was 1.28. For the same compound, the “Mean Ratio Cmax, C2 Day 8/Day 7” value [2, 9] was 1.39, the “Mean Ratio AUCτ, Day 7 C2/C1” value [2, 10] was 1.48 and the “Mean Ratio Cmax, Day 7 C2/C1” value [2, 10] was 1.42. The “Mean Ratio AUCτ, Day 8 C2/C1” value [2, 11] was 1.52, the “Mean Ratio Cmax, Day 8 C2/C1” value [2, 11] was 1.65 and the “TEAEs considered possibly or probably related to mifepristone administration” value ([3]; four subjects in Cohort 2 (600 mg OD)) was “dizziness, nausea, vomiting, dry mouth, and rash”. The “subjects experiencing at least 1 TEAE” value ([3]; twelve subjects, mifepristone 300 or 600 mg OD 8 days, ketoconazole 400 mg Day 8) was 50%, the “concentrations on Day 17 compared with Day 12” value ([4]; 600 mg mifepristone daily with 200 mg ketoconazole twice daily vs mifepristone alone) was “higher” and the “trough concentrations through the start of ketoconazole administration (Day 13)” value ([4]; FIG. 1, 600 mg mifepristone OD) was “increasing day-by-day”. For the same compound, the “difference of time 0 (pre-dose) plasma concentration, Day 17 vs Day 12” value ([4]; FIG. 2, before and after inhibition of CYP3A by ketoconazole) was about 500 ng/mL, the “Ratio % Test/Reference, AUC0-24” value [4, 12] was 138.01% and the “Ratio % Test/Reference, Cmax” value [4, 12] was 127.59%. For the same compound, the “exposures as percent of those observed following the highest labeled dose of mifepristone (1200 mg daily)” value ([5]; 600 mg mifepristone OD + 200 mg ketoconazole BID) was “approximately 85%”, the “Ratio % Test/Ref, AUC0-24” value [5, 13] was 87.27% and the “Ratio % Test/Ref, Cmax” value [5, 13] was 84.64%. The “discontinuation due to AEs” value ([6]; during the mifepristone-only treatment period (moderate hypertension; moderate bilateral rash)) was “Two subjects discontinued due to AEs”, the “subjects with at least one TEAE” value ([6]; during the mifepristone/ketoconazole treatment period) was 57.1% and the “subjects with at least one TEAE” value ([6]; during treatment with mifepristone alone (600 mg OD)) was 55.6%. The “deaths or SAEs” value [6, 14] was “No deaths or SAEs were reported”, the “severe TEAEs” value [6, 14] was “No severe TEAEs were reported” and the AUC(0-t) (clinical; 900 mg) was 59600 ng·h/mL. The Cmax, Geometric Means (clinical; 900 mg) was 3550 ng/mL, the “AUC(0-24), Geometric Means” value (clinical; 1200 mg) was 67,700 and the Cmax (clinical; 1200 mg) was 4360 ng/mL. For the same compound, the “liver function of the patient” value ([7]; Example 5: mifepristone reduced from 1200 mg to 900 mg daily with ketoconazole) was “not significantly compromised”, the “liver function of the patient” value ([7]; Example 6: mifepristone reduced from 900 mg to 600 mg daily with ketoconazole) was “not significantly compromised” and the “liver function of the patient” value ([7]; Example 7: mifepristone reduced from 600 mg to 300 mg daily with ketoconazole) was “not significantly compromised”. For the same compound, the “liver function of the patient” value ([7]; Example 8: mifepristone reduced from 1500 mg to 1200 mg daily with ketoconazole) was “not significantly compromised”.

— US12097210B2, “Concomitant administration of glucocorticoid receptor modulators and CYP3A inhibitors” (Corcept Therapeutics, Inc., priority 2017, dated 2024)
